Data from patent publication US7728036B2, “Methods for delivery of catecholic butanes for treatment of tumors” (priority 2003, dated 2010).

Assays:
Solubility character = type: physicochemical
[1] = tested on: HPV-16 transformed immortal mouse epithelial cells (C3); details: intratumor injection; cited from earlier work
[2] = tested on: human mammary carcinoma MX-1 xenograft; details: intratumor injection or topical application of NDGA; cited from earlier work

Structure (SMILES)	Water solubility / hydrophilic or lipophilic character (Solubility character)	Suppression of tumor growth / tumoricidal activity [1]	Inhibition of tumor growth [2]
C[C@H](Cc1ccc(OC(=O)CN(C)C)c(OC(=O)CN(C)C)c1)[C@@H](C)Cc1ccc(OC(=O)CN(C)C)c(OC(=O)CN(C)C)c1 [G4N, meso-1,4-bis[3,4-(dimethylaminoacetoxy)phenyl]-(2R,3S)-dimethylbutane]	water-soluble, hydrophilic	some evidence of suppression of tumor growth	–
CC(Cc1ccc(O)c(O)c1)C(C)Cc1ccc(O)c(O)c1 (stereo not drawn) [NDGA, nordihydroguaiaretic acid]	–	–	Some evidence of inhibition of tumor growth
